In patent publication US9994548B2, “Phenyl-substituted nicotinic ligands, and methods of use thereof” (Georgetown University, priority 2011, dated 2018):
“Also recorded” adds a separate entry of the source.

Columns and labels:
locomotor activity = assay: Locomotor activity in figure-8 maze; format: in vivo, rat; details: 1-hour session
Protocol: The studies were conducted in accordance with the regulations outlined by the Duke University Animal Care and Use Committee. The rats housed in approved standard laboratory conditions in a Duke University vivarium facility near the testing room to minimize stress induced by transporting the rats. The rats were kept on a 12:12 reverse day/night cycle, so that they were in their active phase during behavioral testing. The rats in the drug iv self-administration studies were singly housed to prevent them from damaging each other's catheters. The rats in the locomotor activity studies were housed in groups of 2-3. All rats were allowed access to water at all times; the rats in the nicotine-self-administration study were fed daily approximately 30 minutes after completing the sessions while those in the locomotor activity study had continuous access to food.
VMY-2-95 was injected s.c. 10 minutes before testing in a volume of 1 mL/kg of saline. The doses (0, 0.3, 1 and 3 mg/kg) were given in a counterbalanced order with at least two days between successive injections.
Another set of rats (N=12) was tested for acute VMY-2-95 effects on locomotor activity in a figure-8 maze over the course of a 1-hour session (see FIG. 10). […] Numbers of photobeam breaks were recorded for five minutes blocks over the one-hour session. […]

rat α3β4 nAChRs = molecular target: T1, rat α3β4 nAChRs (Rattus norvegicus, UniProt P04757+P12392); assay: 86Rb+ efflux assay in stably transfected cells; format: cell-based; details: 86Rb+ efflux, rat α3β4
T1 construct: expressed in transfected cells; host or cells: HEK 293 (KXα3β4R2)
Protocol: (§1) The cell line expressing rat α3β4 nAChRs, KXα3β4R2, was established previously by stably transfecting HEK 293 cells with combinations of rat nAChR α3 and β4 subunit genes. The cell line expressing human α4β2 nAChRs, YXα4β2H1, were established recently (Tuan et al., 2012, manuscript in preparation). These cell lines were maintained in minimum essential medium (MEM) supplemented with 10% fetal bovine serum, 100 units/mL penicillin G, […] streptomycin and selective antibiotics at 37° C. with 5% CO2 in a humidified incubator. Tissue culture medium and antibiotics were obtained from Invitrogen Corporation (Carlsbad, Calif.), unless otherwise stated. Fetal bovine serum and horse serum were provided by Gemini Bio-Products (Woodland, Calif.).
(§2) Functional properties of compounds at nAChRs expressed in the transfected cells were measured using ^86Rb^+ efflux assays as described previously. In brief, cells were plated into 24-well plates coated with poly-D-lysine. The plated cells were grown at 37° C. for 18 to 24 hour to reach 85-95% confluence. The cells were then incubated in growth medium (0.5 mL/well) containing ^86Rb^+ (2 μCi/mL) for 4 hour at 37° C. The loading mixture was then aspirated, and the cells were washed four times with 1 mL buffer (15 mM HEPES, 140 mM NaCl, 2 mM KCl, 1 mM MgSO4, 1.8 mM CaCl2, 11 mM Glucose, pH 7.4). One mL of buffer with or without compounds to be tested was then added to each well. After incubation for 2 min, the assay buffer was collected for measurements of ^86Rb^+ released from the cells. Cells were then lysed by adding 1 mL of 100 mM NaOH to each well, and the lysate was collected for determination of the amount of ^86Rb^+ that was in the cells at the end of the efflux assay. Radioactivity of assay samples and lysates was measured by liquid scintillation counting. Total loading (cpm) was calculated as the sum of the assay sample and the lysate of each well. The amount of ^86Rb^+ efflux was expressed as a percentage of ^86Rb^+ loaded. […] For obtaining EC50 and Emax values, stimulation curves were constructed in which 8 different concentrations of a ligand were included in the assay. […] EC50, Emax and IC50(10′) values were determined by nonlinear least-squares regression analyses (GraphPad, San Diego, Calif.).
(§3) Functional properties of the new ligands were determined by ^86Rb^1 efflux assays in cells expressing α3β4 and α4β2 nAChR subtypes. Functional activity of each new ligand was measured in terms of its agonism, antagonism and desensitization ability.
(§4) Agonist activity of each of the ligands was tested at eight concentrations. […] The full concentration-effect curves generated potency (EC50) and efficacy (Emax) of each ligand.
(§5) Though the ^86Rb^+ efflux assays were the main methodology used to determine functional properties, whole-cell current measurements were also used to verify the key experiments.

human α4β2 nAChRs = molecular target: T2, human α4β2 nAChRs (Homo sapiens, UniProt P17787+P43681); assay: 86Rb+ efflux assay in stably transfected cells; format: cell-based
T2 construct: expressed in transfected cells
Protocol: as §1, §2, §3, §4, §5

T2 sequence (P43681 29-627 limits assumed): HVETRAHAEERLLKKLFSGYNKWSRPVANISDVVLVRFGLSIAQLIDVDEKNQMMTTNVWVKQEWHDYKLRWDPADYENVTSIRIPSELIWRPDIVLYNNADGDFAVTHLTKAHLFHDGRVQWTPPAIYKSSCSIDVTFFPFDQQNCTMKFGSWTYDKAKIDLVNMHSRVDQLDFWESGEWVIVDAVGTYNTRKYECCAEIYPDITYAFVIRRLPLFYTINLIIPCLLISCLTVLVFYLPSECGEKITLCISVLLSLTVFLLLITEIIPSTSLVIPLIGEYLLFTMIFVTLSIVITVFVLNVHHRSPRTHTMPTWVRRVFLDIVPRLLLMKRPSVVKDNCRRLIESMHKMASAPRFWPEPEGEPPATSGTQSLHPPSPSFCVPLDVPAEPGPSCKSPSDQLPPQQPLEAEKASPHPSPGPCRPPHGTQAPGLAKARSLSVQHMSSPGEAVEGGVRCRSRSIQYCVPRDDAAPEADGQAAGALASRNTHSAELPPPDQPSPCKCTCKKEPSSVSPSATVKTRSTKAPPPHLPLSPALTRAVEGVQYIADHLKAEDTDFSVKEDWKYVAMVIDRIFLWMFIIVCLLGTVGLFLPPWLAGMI
T2 sequence (P17787 26-502): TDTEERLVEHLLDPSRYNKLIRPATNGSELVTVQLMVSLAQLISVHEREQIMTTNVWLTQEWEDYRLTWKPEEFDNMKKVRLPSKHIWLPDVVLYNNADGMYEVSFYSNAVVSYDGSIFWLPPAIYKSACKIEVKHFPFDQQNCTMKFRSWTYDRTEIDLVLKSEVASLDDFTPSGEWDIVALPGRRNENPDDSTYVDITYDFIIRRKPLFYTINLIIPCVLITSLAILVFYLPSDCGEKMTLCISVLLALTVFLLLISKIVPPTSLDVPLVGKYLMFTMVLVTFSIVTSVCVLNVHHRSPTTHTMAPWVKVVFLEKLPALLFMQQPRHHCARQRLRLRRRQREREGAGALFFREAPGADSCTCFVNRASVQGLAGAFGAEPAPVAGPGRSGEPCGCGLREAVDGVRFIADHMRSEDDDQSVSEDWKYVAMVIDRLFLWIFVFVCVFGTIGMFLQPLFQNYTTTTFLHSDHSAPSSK
T1 sequence (P04757 26-499): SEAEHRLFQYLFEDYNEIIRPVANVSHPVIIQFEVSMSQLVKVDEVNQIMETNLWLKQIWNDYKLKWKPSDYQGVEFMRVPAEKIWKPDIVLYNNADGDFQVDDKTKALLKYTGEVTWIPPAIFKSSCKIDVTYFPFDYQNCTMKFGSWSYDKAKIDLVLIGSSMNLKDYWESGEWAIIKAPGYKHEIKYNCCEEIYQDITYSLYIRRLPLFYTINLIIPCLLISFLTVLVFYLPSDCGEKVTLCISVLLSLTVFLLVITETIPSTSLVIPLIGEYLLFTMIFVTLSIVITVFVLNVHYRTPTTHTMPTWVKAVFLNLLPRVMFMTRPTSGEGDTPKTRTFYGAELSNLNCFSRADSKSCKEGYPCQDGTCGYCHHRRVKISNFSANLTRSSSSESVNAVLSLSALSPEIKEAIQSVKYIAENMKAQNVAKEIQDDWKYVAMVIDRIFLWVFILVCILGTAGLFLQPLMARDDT
T1 sequence (P12392 21-495): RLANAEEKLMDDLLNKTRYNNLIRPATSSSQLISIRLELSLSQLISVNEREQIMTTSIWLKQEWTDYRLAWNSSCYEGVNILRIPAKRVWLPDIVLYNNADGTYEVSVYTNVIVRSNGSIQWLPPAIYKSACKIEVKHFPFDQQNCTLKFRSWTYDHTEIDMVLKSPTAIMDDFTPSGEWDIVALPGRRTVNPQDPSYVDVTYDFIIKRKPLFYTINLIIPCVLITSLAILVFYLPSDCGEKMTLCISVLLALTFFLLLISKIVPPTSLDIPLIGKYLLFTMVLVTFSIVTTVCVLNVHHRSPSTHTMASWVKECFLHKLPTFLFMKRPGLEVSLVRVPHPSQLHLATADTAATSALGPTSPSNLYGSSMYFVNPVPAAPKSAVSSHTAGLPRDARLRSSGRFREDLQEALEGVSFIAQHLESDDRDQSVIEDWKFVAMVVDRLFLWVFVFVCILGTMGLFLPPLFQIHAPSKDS

## C(#Cc1cncc(OC[C@@H]2CCN2)c1)c1ccccc1 [VMY-2-95, (S)-3-(azetidin-2-ylmethoxy)-5-(phenylethynyl)pyridine]
Locomotor activity; s.c.
  dose at peak of increased locomotor activity: 1 mg/kg
Locomotor activity; three doses tested (0.3, 1, 3 mg/kg s.c.)
  locomotor activity: significantly increased
Rat α3β4 nAChRs
  agonist activity at α3β4 nAChRs: did not show any detectable agonist activity; also recorded: does not show agonist activity
Human α4β2 nAChRs
  EC50: 0.0086 µM
Human α4β2 nAChRs; 86Rb+ efflux, human α4β2
  agonist activity at α4β2 receptors: clear agonist activity
Human α4β2 nAChRs; 10 min pre-treatment before 100 μM (−)-nicotine, read-out: IC50(10′) α4β2 (desensitization potency)
  IC50: 0.016 µM
Human α4β2 nAChRs; preincubated with the cells for 10 min
  inhibition of nicotine activation of α4β2 receptors: inhibited
